Measurements as given in patent publication US8293726B2, “Treatment of cancer and other diseases” (Vianova Labs, Inc., priority 2005, dated 2012).
Where “and” joins values, the source holds several entries; their conditions need not be identical. Identical values can stand only once.

What was measured:
[1] = system: lung large-cell adenocarcinoma metastatic to liver; assay: Patient case: lung large-cell adenocarcinoma metastatic to liver; assay type: in vivo, human; set-up: LDH: unit not given beside the values
Source text: A patient was diagnosed with a lung large-cell adenocarcinoma metastatic to liver. They received chemotherapy with no success. […] They also had frequent hemoptysis and elevated LDH, GGT, and bilirubin. The course of the patient's biologic parameters during treatment are depicted in Table 7.

[2] = system: left squamous-cell carcinoma of the lung; assay: Patient case: squamous-cell carcinoma of the lung; assay type: in vivo, human
Source text: A patient with presented with a left squamous-cell carcinoma of the lung. […] Seven months later the patient received radiotherapy to the left lung. […] The patient undergoes a left pneumonectomy and drug therapy is stopped, but the tumor recurs and the patient dies.

[3] = system: human tumor cell line: squamous-cell carcinoma of the lung; assay: Human tumor cell lines in immunocompromised mice (intraperitoneal, ascitis): squamous lung; assay type: in vivo; conditions: treated mice (4, 2 and 0.8 mg/kg/day orally for 10 days)
Method: (§1) Immunocompromised mice were used for this experiment. Mice were inbred in a sterile environment and fed ad libitum. Four groups of 40 mice, weighing approximately 20 g each (range: 17-25 g), were used for each tumor type. The human tumor cell lines used were the following: large B-cell lymphoma; squamous-cell carcinoma of the lung; ductal carcinoma breast; and adenocarcinoma of the lung. A suspension of tumor cells was injected in the peritoneum of immunocompromised mice. Following this, mice were examined and weighed daily. After 6-8 days, we observed the development of abdominal carcinomatosis and […]. At day 18, we observed the development of an abundant […], which increased the weight of the mice by approximately 20 g. At that time, mice were divided into four groups of 10. […] Assessment of tumor cell concentration in the […] abdominal metastases were measured on day 18 and every 2 days thereafter. In all mice, prior to treatment, we observed an increase in LDH ESR (>100) and a decrease in the hematocrit. Control (untreated) mice all died between day 21 and day 25 in all tumor types. […] Complete response: Weight (and ascetic) loss and the disappearance of all abdominal metastatic nodules and tumor cells. Partial response: Weight (and ascitic) loss and at least 25% decrease of tumor cell in the […] least 25% decrease in measured abdominal metastatic nodules. […] Progressive disease: When we observed an increase in […] or tumor volume or death of the animal.

[4] = system: uterine cancer stage IIB; assay: Patient case: recurrent uterine cancer; assay type: in vivo, human; conditions: 60 mg/day, within three months; recurrent 3.2 cm pelvic mass before
Source text: A patient presented with uterine cancer stage IIB. They previously received cisplatin-based chemotherapy and radiotherapy. […] A cervical biopsy confirms the recurrence. […] Within three months, the tumor had disappeared on clinical exam and abdomino-pelvic CT scan.

[5] = system: human tumor cell lines; assay: Human tumor cell lines in immunocompromised mice, general observations over all tumor types; assay type: in vivo
Method: Immunocompromised mice were used for this experiment. Mice were inbred in a sterile environment and fed ad libitum. Four groups of 40 mice, weighing approximately 20 g each (range: 17-25 g), were used for each tumor type. The human tumor cell lines used were the following: large B-cell lymphoma; squamous-cell carcinoma of the lung; ductal carcinoma breast; and adenocarcinoma of the lung. A suspension of tumor cells was injected in the peritoneum of immunocompromised mice. Following this, mice were examined and weighed daily. After 6-8 days, we observed the development of abdominal carcinomatosis and […]. At day 18, we observed the development of an abundant […], which increased the weight of the mice by approximately 20 g. At that time, mice were divided into four groups of 10. […] Assessment of tumor cell concentration in the […] abdominal metastases were measured on day 18 and every 2 days thereafter. In all mice, prior to treatment, we observed an increase in LDH ESR (>100) and a decrease in the hematocrit. Control (untreated) mice all died between day 21 and day 25 in all tumor types.

[6] = system: breast cancer stage IV with lung and bone metastases; assay: Patient case: breast cancer stage IV with lung and bone metastases, CA 15-3; assay type: in vivo, human; conditions: for CA 15-3: Femara, Decapeptyl
Source text: A patient presented with breast cancer stage IV with lung and bone metastases. They previously underwent a left radical mastectomy for a stage 2 colloidal mucinous adenocarcinoma Hormone receptors and c-erb B were negative. They received adjuvant chemotherapy (FAC) followed by radiotherapy. Later, a sternal bone metastasis appeared and was resected. […] They also developed lung metastases up to 4 cm size. They received chemotherapy with taxotere, navelbine, and pamidronate, followed by tamoxifen. This treatment gave an almost complete response in the lungs. Tamoxifen was replaced by Femara. The patient received radiotherapy on the spine (T4 and T1 2) and Zometa is administered along with Femara. […] Zometa and Femara were continued and Decapeptyl was added to the treatment.

[7] = system: human tumor cell line: ductal carcinoma breast; assay: Human tumor cell lines in immunocompromised mice (intraperitoneal, ascitis): breast; assay type: in vivo; conditions: Breast CA; treated mice (4, 2 and 0.8 mg/kg/day orally for 10 days)
Method: as §1

CC[C@H](CC[C@@H](C)[C@H]1CC[C@H]2[C@@H]3C[C@H](O)[C@@]4(O)C[C@@H](O)CC[C@]4(C)[C@H]3CC[C@]12C)C(C)C [24-ethyl-cholestane-3β,5α,6α-triol]
LDH ([1]; Day 11, 70 mg/day, Day 0 prior to treatment 2560 (nl < 480)): 2264 | LDH ([1]; Day 30, 70 mg/day): 283 | LDH ([1]; Day 63, 70 mg/day): 118 | Total Bilirubin ([1]; Day 63, 70 mg/day, Day 0 prior to treatment 1.9 (nl < 1)): 0.42 | LDH ([1]; Day 85, 70 mg/day): 230 | Total Bilirubin ([1]; Day 85, 70 mg/day): 0.37 | GGT ([1]; during treatment, 70 mg/day): 31 | CT scans, masses in the lungs and liver ([1]; more than a year after commencement of therapy): decrease in number and size of previous masses | general condition ([2]; 50 mg/day, after commencing therapy): drastic and rapid improvement | fibroscopy ([2]; fourteen months after therapy commenced): normal | late outcome ([2]; nearly five years after commencement of therapy): recurrence of the left lung tumor | left lung opacity ([2]; nine months after commencing treatment, radiotherapy to the left lung at seven months): significant regression | Complete Remission [3]: 50% | Partial Remission [3]: 30% | Progressive Disease [3]: 0% | Stable Disease [3]: 20% | Symptomatic Response [3]: 100% | tumor on clinical exam and abdomino-pelvic CT scan [4]: disappeared | survival without recurrence ([5]; mice that exhibited a complete response): three month survival without recurrence | general condition ([5]; most of the treated mice): improvement in the general condition | hematological abnormalities ([5]; most of the treated mice): normalization of hematological abnormalities | time to ascitic regression (rapid response to therapy) ([5]; most of the treated mice): 1 to 2 days | tumor cells ([5]; most of the treated mice, associated with an important tumor lysis): total clearance of tumor cells | CA 15-3 ([6]; Month 5, 60 mg/day with Zometa, Month 0 prior to treatment 277 (nl < 35)): 156 U | CA 15-3 ([6]; Month 6, 60 mg/day with Zometa): 85 U and 52 U | CA 15-3 ([6]; Month 14, 60 mg/day with Zometa): 24 U | CA 15-3 ([6]; Month 16, 60 mg/day with Zometa): 19.5 U | symptoms ([6]; two weeks after the beginning of LC): totally asymptomatic | Complete Remission [7]: 60% | Partial Remission [7]: 20% | Progressive Disease [7]: 0% | Stable Disease [7]: 20% | Symptomatic Response [7]: 100%
